Key:
Test in all cases: Ambit KinomeScan screening
Type in all cases: binding
Conditions in all cases: CAL-130 10 μM
PRKX = target: T1, PRKX (Homo sapiens, UniProt P51817)
T1 construct: tag (kind not specified); purchased Ambit (KinomeScan screening service)
Method in brief: (§1)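 Read-out is % of control binding: the tagged kinase retained on an immobilized bait ligand when CAL-130 is present at 10 μM. A lower percentage reflects stronger compound interaction, and anything over 35% counts as no hit.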

SYK = target: T2, SYK (Homo sapiens, UniProt P43405)
T2 construct: tag (kind not specified); purchased Ambit (KinomeScan screening service)
Method in brief: as §1

MAP4K5 = target: T3, MAP4K5 (Homo sapiens, UniProt Q9Y4K4)
T3 construct: Ambit (KinomeScan screening)
T3 sequence (Q9Y4K4 whole entry): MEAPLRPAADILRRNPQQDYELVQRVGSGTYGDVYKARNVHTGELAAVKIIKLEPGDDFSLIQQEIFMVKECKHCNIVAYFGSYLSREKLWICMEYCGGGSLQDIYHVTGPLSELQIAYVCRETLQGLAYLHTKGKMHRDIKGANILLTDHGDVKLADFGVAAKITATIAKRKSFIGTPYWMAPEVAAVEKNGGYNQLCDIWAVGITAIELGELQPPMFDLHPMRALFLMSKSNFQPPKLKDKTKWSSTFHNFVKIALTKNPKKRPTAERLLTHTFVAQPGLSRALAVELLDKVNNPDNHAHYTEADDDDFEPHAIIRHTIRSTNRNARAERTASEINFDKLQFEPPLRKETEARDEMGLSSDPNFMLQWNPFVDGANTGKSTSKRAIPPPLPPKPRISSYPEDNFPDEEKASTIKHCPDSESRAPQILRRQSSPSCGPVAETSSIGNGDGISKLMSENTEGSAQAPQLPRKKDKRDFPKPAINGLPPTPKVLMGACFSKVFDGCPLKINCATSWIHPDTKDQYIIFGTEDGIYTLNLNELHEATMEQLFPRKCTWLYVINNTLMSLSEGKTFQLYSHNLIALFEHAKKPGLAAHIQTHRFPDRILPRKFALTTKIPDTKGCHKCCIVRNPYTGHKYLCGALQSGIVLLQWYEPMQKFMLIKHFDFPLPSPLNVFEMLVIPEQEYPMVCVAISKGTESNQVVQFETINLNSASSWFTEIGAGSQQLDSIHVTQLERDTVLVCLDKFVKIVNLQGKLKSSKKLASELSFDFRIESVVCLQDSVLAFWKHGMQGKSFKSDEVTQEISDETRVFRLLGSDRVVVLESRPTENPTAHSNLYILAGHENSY
Method in brief: as §1

AMPK-α1 = target: T4, AMPK-α1 (Homo sapiens, UniProt Q13131)
T4 construct: purchased Ambit (KinomeScan screening)
Method in brief: as §1

PRKD3 = target: T5, PRKD3 (Homo sapiens, UniProt O94806)
T5 construct: tag (kind not specified); purchased Ambit (KinomeScan screening service)
Method in brief: as §1

FLT3 = target: T6, FLT3 (Homo sapiens, UniProt P36888)
T6 construct: unspecified tag; purchased Ambit (KinomeScan screening service)
Method in brief: as §1

TIE1 = target: T7, TIE1 (Homo sapiens, UniProt P35590)
T7 construct: unspecified tag (tagged kinase); purchased Ambit (KinomeScan screening)
Method in brief: as §1

ABL1(Y253F) = target: T8, ABL1(Y253F) (Homo sapiens, UniProt P00519, Y253F)
T8 construct: unspecified tag ("tagged kinases"); purchased Ambit (KinomeScan screening)
Method in brief: as §1

PFTK1 = target: T9, PFTK1 (Homo sapiens, UniProt O94921)
T9 construct: unspecified tag ('tagged kinases'); purchased Ambit (KinomeScan screening)
Method in brief: as §1

PIP5K1A = target: T10, PIP5K1A (Homo sapiens, UniProt Q99755)
T10 construct: unspecified tag; purchased Ambit (KinomeScan screening panel)
Method in brief: as §1

AXL = target: T11, AXL (Homo sapiens, UniProt P30530)
T11 construct: purchased Ambit (KinomeScan screening service)
Method in brief: as §1

MAP4K3 = target: T12, MAP4K3 (Homo sapiens, UniProt Q8IVH8)
T12 construct: Ambit (KinomeScan screening)
T12 sequence (Q8IVH8 whole entry): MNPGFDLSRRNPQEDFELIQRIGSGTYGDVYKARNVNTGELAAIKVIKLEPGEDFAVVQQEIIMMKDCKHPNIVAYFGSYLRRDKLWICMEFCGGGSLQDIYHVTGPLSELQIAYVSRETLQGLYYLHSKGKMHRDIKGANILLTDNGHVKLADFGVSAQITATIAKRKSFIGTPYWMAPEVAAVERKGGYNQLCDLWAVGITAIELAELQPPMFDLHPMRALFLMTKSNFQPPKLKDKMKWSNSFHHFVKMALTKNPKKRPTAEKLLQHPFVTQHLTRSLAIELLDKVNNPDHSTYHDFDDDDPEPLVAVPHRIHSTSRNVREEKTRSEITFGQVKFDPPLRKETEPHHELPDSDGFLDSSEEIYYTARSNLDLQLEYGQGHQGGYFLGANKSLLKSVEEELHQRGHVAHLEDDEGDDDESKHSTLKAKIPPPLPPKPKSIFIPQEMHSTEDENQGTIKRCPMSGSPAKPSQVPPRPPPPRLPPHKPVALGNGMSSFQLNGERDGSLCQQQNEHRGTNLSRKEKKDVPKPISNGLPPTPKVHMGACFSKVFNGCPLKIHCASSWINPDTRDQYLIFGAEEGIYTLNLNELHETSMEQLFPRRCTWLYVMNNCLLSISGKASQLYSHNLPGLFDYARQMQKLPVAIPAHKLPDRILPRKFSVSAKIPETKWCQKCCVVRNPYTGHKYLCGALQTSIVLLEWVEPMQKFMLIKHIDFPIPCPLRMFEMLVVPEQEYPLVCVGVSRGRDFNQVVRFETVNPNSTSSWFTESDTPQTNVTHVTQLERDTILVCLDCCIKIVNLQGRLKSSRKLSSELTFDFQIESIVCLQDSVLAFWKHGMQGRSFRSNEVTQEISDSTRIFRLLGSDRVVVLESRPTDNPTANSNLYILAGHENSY
Method in brief: as §1

EPHB6 = target: T13, EPHB6 (Homo sapiens, UniProt O15197)
T13 construct: purchased Ambit (KinomeScan screening service)
Method in brief: as §1

JAK1(JH2domain) = target: T14, JAK1(JH2domain) (Homo sapiens, UniProt P23458)
T14 construct: JAK1(JH2domain); purchased Ambit (KinomeScan screening)
T14 sequence (P23458 583-855 limits assumed): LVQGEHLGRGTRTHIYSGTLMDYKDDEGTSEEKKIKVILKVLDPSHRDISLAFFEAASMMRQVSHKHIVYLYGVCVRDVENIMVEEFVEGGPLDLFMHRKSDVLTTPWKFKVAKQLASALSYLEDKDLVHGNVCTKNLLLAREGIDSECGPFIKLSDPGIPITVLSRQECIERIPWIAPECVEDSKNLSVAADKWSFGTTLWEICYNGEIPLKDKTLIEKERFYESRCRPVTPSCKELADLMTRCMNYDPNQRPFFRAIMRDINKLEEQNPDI
Method in brief: as §1

MEK3 = target: T15, MEK3 (Homo sapiens, UniProt P46734)
T15 construct: purchased Ambit (KinomeScan screening)
Method in brief: as §1

CLK1 = target: T16, CLK1 (Homo sapiens, UniProt P49759)
T16 construct: purchased Ambit (KinomeScan screening service)
Method in brief: as §1

GRK1 = target: T17, GRK1 (Homo sapiens, UniProt Q15835)
T17 construct: unspecified tag ('tagged kinases'); purchased Ambit (KinomeScan screening service)
T17 sequence (Q15835 whole entry): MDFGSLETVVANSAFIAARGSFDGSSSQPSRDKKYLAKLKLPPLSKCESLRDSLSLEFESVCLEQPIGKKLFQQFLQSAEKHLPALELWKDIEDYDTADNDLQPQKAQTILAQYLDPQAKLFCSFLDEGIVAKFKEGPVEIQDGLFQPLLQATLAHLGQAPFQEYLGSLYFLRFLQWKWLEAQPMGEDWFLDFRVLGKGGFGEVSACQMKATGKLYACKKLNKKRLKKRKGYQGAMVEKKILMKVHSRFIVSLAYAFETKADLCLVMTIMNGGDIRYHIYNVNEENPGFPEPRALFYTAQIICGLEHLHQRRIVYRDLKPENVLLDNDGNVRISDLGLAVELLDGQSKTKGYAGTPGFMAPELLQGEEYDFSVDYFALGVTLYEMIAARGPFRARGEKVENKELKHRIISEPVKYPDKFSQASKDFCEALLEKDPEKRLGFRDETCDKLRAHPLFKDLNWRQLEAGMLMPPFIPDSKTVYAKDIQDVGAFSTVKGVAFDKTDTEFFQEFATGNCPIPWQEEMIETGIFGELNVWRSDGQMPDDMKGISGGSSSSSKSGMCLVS
Method in brief: as §1

ROCK2 = target: T18, ROCK2 (Homo sapiens, UniProt O75116)
T18 construct: unspecified tag (tagged kinase); purchased Ambit (KinomeScan screening)
Method in brief: as §1

ERK3 = target: T19, ERK3 (Homo sapiens, UniProt Q16659)
T19 construct: unspecified tag ("tagged kinases"); purchased Ambit (KinomeScan screening service)
Method in brief: as §1

FGFR1 = target: T20, FGFR1 (Homo sapiens, UniProt P11362)
T20 construct: unspecified tag; purchased Ambit (KinomeScan screening service)
Method in brief: as §1

ERN1 = target: T21, ERN1 (Homo sapiens, UniProt O75460)
T21 construct: unspecified tag ("tagged kinases"); purchased Ambit (KinomeScan screening service)
Method in brief: as §1

CSNK1G1 = target: T22, CSNK1G1 (Homo sapiens, UniProt Q9HCP0)
T22 construct: purchased Ambit (KinomeScan screening service)
T22 sequence (Q9HCP0 whole entry): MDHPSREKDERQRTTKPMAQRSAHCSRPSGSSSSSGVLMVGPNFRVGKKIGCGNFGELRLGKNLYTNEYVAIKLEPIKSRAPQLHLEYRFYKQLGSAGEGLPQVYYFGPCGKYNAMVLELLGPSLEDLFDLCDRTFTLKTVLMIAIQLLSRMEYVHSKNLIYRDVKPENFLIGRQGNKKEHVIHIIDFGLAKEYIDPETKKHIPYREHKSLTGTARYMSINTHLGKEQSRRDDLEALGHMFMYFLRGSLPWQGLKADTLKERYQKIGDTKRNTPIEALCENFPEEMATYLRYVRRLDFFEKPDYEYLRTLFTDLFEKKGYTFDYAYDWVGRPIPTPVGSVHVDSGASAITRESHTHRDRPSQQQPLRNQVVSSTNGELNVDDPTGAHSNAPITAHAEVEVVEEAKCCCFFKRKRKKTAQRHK
Method in brief: as §1

PLK1 = target: T23, PLK1 (Homo sapiens, UniProt P53350)
T23 construct: purchased Ambit (KinomeScan screening service)
T23 sequence (P53350 whole entry): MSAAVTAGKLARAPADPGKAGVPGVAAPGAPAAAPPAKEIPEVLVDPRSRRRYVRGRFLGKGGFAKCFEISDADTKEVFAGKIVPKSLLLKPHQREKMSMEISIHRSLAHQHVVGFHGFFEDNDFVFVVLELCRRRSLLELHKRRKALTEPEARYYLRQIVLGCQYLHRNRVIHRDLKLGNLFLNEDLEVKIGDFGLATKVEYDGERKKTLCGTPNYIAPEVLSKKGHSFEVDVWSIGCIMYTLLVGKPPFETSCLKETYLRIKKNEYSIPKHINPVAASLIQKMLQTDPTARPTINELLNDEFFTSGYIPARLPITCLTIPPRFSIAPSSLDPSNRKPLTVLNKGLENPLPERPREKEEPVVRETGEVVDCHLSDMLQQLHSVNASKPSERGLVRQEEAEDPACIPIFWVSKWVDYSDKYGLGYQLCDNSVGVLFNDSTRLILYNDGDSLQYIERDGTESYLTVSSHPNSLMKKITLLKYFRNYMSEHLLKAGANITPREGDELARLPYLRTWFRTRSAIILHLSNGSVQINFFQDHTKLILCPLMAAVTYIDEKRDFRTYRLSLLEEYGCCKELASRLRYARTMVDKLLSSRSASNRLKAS
Method in brief: as §1

STK35 = target: T24, STK35 (Homo sapiens, UniProt Q8TDR2)
T24 construct: tag (kind not specified); purchased Ambit (KinomeScan screening service)
Method in brief: as §1

TGFBR1 = target: T25, TGFBR1 (Homo sapiens, UniProt P36897)
T25 construct: unspecified tag (tagged kinase); purchased Ambit (KinomeScan screening)
Method in brief: as §1

EGFR(L858R, T790M) = target: T26, EGFR(L858R, T790M) (Homo sapiens, UniProt P00533, L858R/T790M)
T26 construct: unspecified tag; purchased Ambit (KinomeScan screening service)
Method in brief: as §1

PRKD1 = target: T27, PRKD1 (Homo sapiens, UniProt Q15139)
T27 construct: purchased Ambit (KinomeScan screening service)
Method in brief: as §1

MARK4 = target: T28, MARK4 (Homo sapiens, UniProt Q96L34)
T28 construct: purchased Ambit (KinomeScan screening)
T28 sequence (Q96L34 whole entry): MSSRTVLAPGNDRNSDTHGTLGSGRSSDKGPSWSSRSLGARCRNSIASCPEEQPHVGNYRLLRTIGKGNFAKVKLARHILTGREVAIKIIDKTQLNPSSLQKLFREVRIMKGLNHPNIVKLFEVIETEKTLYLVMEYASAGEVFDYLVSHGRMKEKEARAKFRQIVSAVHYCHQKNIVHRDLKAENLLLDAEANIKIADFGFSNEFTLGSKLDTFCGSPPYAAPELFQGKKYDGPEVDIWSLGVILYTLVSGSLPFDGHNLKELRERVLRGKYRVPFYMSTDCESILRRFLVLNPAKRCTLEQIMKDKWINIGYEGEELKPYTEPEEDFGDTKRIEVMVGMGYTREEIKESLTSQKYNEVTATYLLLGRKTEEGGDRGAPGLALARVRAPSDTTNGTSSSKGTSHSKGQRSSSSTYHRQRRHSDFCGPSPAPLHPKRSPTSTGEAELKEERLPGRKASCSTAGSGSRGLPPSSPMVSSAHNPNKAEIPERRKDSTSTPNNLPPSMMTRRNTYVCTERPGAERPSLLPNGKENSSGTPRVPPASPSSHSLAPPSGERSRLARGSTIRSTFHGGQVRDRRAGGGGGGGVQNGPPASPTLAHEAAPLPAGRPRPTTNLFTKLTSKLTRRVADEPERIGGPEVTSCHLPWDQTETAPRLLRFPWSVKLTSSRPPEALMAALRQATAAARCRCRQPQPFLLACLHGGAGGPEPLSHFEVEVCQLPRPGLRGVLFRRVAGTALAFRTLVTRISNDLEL
Method in brief: as §1

INSRR = target: T29, INSRR (Homo sapiens, UniProt P14616)
T29 construct: Ambit (KinomeScan screening)
Method in brief: as §1

MYO3B = target: T30, MYO3B (Homo sapiens, UniProt Q8WXR4)
T30 construct: unspecified tag; purchased Ambit (KinomeScan screening panel)
Method in brief: as §1

MRCKA = target: T31, MRCKA (Homo sapiens, UniProt Q5VT25)
T31 construct: unspecified tag ('tagged kinases'); purchased Ambit (KinomeScan screening)
Method in brief: as §1

GRK4 = target: T32, GRK4 (Homo sapiens, UniProt P32298)
T32 construct: unspecified tag ('tagged kinases'); purchased Ambit (KinomeScan screening service)
Method in brief: as §1

DRAK1 = target: T33, DRAK1 (Homo sapiens, UniProt Q9UEE5)
T33 construct: unspecified tag ("tagged kinases"); purchased Ambit (KinomeScan screening service)
Method in brief: as §1

IKK-α = target: T34, IKK-α (Homo sapiens, UniProt O15111)
T34 construct: Ambit (KinomeScan screening)
Method in brief: as §1

ITK = target: T35, ITK (Homo sapiens, UniProt Q08881)
T35 construct: purchased Ambit (KinomeScan screening)
Method in brief: as §1

TESK1 = target: T36, TESK1 (Homo sapiens, UniProt Q15569)
T36 construct: unspecified tag (tagged kinase); purchased Ambit (KinomeScan screening)
T36 sequence (Q15569 whole entry): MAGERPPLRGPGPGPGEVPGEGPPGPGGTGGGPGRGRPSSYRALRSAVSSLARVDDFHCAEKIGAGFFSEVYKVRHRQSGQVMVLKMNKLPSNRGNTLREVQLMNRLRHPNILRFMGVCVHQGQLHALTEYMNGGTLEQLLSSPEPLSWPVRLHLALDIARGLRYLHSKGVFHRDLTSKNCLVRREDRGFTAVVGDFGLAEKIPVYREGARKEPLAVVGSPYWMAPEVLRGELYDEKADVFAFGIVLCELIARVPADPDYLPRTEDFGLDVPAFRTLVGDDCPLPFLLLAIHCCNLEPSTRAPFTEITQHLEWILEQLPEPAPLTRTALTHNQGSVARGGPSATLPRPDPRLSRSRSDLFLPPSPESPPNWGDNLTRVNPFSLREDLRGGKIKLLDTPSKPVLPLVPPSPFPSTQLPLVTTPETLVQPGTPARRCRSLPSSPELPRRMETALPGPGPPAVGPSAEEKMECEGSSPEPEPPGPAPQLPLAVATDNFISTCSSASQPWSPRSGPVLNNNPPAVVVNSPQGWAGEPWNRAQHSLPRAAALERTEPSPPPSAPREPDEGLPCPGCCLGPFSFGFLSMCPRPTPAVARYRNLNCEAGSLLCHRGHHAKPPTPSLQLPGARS
Method in brief: as §1

Measured: Percent of Control Binding

Cc1ccccc1-n1c(C(C)Nc2nc(N)nc3nc[nH]c23)nc2cccc(C)c2c1=O (stereo not drawn) [CAL-130]
100%: all assays above

Source: patent publication US11969428B2, “Methods and pharmaceutical compositions for treating lymphoid malignancy” (priority 2011, dated 2024)
